Three compounds from article PMC7824111, “Targeting Cytokinin Homeostasis in Rapid Cycling Brassica rapa with Plant Growth Regulators INCYDE and TD-K” (Plants, 2020) can be followed below.

For one assay, the target named is CRE1/AHK4 (Arabidopsis thaliana, UniProt Q9C5U0). Description: E. coli receptor activation assay. It counts as cell-based.
A further assay addresses T1, AHK3 (Arabidopsis thaliana, UniProt Q9C5U1).
T1 sequence (Q9C5U1 1-1036): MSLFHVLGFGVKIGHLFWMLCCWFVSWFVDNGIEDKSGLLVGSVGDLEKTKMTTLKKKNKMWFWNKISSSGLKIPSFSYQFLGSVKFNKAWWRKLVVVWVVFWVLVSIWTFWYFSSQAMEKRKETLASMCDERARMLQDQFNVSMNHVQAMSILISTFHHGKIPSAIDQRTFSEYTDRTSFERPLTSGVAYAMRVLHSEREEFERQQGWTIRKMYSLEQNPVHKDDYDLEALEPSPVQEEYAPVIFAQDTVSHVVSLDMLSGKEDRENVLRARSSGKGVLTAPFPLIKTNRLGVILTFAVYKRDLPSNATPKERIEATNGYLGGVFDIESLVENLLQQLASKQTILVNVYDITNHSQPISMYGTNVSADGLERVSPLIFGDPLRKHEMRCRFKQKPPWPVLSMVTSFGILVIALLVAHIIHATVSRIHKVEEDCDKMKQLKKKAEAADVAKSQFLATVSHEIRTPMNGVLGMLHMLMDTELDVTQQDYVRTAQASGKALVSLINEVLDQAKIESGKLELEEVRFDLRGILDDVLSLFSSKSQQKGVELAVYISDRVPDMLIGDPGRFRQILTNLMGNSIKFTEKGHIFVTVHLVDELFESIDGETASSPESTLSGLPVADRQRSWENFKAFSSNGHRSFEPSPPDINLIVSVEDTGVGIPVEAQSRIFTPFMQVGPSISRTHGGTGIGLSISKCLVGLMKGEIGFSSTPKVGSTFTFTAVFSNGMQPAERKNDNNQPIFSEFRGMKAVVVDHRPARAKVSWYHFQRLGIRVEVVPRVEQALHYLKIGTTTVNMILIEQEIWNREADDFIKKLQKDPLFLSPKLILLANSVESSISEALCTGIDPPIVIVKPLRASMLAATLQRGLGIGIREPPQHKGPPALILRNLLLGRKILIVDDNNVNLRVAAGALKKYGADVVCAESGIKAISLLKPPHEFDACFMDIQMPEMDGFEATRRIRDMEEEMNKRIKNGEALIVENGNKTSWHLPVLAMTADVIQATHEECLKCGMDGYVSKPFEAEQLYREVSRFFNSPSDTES
In words: E. coli receptor activation assay. It counts as cell-based.

Structures are written as SMILES.

Chain of CRE1/AHK4 (Q9C5U0 whole entry): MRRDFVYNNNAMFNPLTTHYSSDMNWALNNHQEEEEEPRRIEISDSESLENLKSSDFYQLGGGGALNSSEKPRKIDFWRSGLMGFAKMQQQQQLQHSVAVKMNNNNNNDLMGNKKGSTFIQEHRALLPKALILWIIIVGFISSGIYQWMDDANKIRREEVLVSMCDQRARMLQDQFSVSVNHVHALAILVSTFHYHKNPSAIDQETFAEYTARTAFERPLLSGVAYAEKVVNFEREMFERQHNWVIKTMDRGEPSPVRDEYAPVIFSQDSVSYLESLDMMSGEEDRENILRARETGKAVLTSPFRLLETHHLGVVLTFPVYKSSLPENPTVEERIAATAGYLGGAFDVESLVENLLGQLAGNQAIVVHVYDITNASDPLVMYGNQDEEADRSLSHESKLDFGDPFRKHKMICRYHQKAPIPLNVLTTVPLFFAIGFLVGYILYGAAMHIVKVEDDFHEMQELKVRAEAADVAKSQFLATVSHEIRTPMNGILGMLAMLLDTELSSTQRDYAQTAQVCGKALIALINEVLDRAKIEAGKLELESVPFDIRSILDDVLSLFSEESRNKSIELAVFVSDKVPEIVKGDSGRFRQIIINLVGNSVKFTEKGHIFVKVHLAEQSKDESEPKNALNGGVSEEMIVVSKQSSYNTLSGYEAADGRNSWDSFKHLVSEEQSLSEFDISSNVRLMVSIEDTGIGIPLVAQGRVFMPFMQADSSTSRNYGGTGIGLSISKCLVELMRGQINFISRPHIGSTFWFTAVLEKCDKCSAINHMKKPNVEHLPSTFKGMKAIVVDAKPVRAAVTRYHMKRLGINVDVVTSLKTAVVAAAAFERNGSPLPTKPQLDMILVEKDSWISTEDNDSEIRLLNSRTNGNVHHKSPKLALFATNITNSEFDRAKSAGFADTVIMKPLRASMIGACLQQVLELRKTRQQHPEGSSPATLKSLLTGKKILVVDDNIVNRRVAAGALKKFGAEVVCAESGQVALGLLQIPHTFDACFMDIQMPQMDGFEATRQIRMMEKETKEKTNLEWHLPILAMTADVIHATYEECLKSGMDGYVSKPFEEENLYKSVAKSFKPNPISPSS

In the case of `O=C(NCc1ccccc1)Nc1cnns1` [TD-BA], the “E. coli receptor activation assay” value on CRE1/AHK4 is given as ~ 50 μM.

Regarding `O=C(Nc1ccccc1)Nc1cnns1` [TDZ, 1-phenyl-3-(1,2,3-thiadiazol-5-yl) urea], the figures for the “E. coli receptor activation assay” value at CRE1/AHK4 and at AHK3 were ~ 1 μM and ~ 10 nM, respectively.

On to `C/C(=C\CNc1ncnc2[nH]cnc12)CO` [tZ, trans-zeatin], for which the “E. coli receptor activation assay” value on CRE1/AHK4 is ~ 1 μM; at AHK3, ~ 10 nM.
